# Measured values: US20260200943A1, “COMPOUNDS FOR TREATING CANCER” (Genesis Therapeutics, Inc., priority 2022, published 2026)
# Tests used:
# Format in all cases: biochemical
# CDK9/CyclinT1 = CDK9/CyclinT1 (Homo sapiens, UniProt P50750); assay: CDK9/CyclinT1 Mobility Shift Assay (Caliper, Table B); design: Wild-type, full length CDK9 in complex with wildtype, CyclinT1 (1-259): Biortus Cat #BP480/792/691; purchased Biortus BP480/792/691; conditions: read-out: CDK9/Cyclin T1 Caliper Ki: Average Ki
# Protocol: 10 nL of 2000× compound in 100% DMSO is added to a 384-well polypropylene assay plate. 15 μL of 1.3×CDK9/T1 and 1.3× fluorescent substrate (Wild-type, full length CDK9 in complex with wildtype, CyclinT1 (1-259): Biortus Cat #BP480/792/691 and FL-Peptide 34: PerkinElmer Cat #760643) diluted in kinase buffer (50 mM Hepes, 0.01% Brij-35, 10 mM MgCl2, 1 mM EGTA, 0.05% BSA, and 2 mM DTT) is added to the plates on top of the compound, mixed, and pre-incubated for 30 minutes at room temperature. The fluorescently labeled peptide substrate is phosphorylated by CDK9/T1 upon ATP hydrolysis. Following the incubation, 5 μL of 4×ATP diluted in kinase buffer is added to the plate to initiate the reaction. Following the 30-minute incubation, the reaction is stopped by adding 75 μL of stopping buffer containing 0.5 M EDTA.
# (§1) The assay plate is then read on a Lab Chip EZ Reader which separates the fluorescently labeled substrate and product peptides through a mobility difference. The phosphorylation of the substrate imparts a negative charge, which allows differences in separation as both are pulled through the microfluidic chip. The ratio of substrate and product values are used to generate percent conversion. These raw percent conversion values are normalized to calculate percent inhibition, which are fit to a four-parameter logistic curve and IC50 values are calculated. IC50 values are converted to Ki using substrate, Kmapp values, and the Cheng-Prusoff equation.
# CDK1/CyclinB1 [1] = biological target: T1, CDK1/CyclinB1 (Homo sapiens, UniProt P06493); assay: CDK1/Cyclin B1 Mobility Shift Assay (Caliper, Table B); conditions: read-out: CDK1/CCNB1 Caliper Ki: Average Ki
# T1 construct: Wild-type, full length CDK1 in complex with wildtype, full length CyclinB1: Carna Cat #04-102; purchased Carna 04-102
# Protocol: 10 nL of 2000× compound in 100% DMSO is added to a 384-well polypropylene assay plate. 15 μL of 1.3×CDK1/B1 and 1.3× fluorescent substrate (Wild-type, full length CDK1 in complex with wildtype, full length CyclinB1: Carna Cat #04-102 and FL-Peptide 29: PerkinElmer Cat #760429) diluted in kinase buffer (50 mM Hepes, 0.01% Brij-35, 10 mM MgCl2, 1 mM EGTA, 0.05% BSA, and 2 mM DTT) is added to the plates on top of the compound, mixed, and pre-incubated for 30 minutes at room temperature. The fluorescently labeled peptide substrate is phosphorylated by CDK1/B1 upon ATP hydrolysis. Following the incubation, 5 μL of 4×ATP diluted in kinase buffer is added to the plate to initiate the reaction. Following the 30-minute incubation, the reaction is stopped by adding 75 μL of stopping buffer containing 0.5 M EDTA.
# as §1
# CDK2/CyclinA2 = biological target: T2, CDK2/CyclinA2 (Homo sapiens, UniProt P24941); assay: CDK2/Cyclin A2 Mobility Shift Assay (Caliper, Table B); conditions: for Ki: Caliper mobility shift, 10xKm, read-out: CDK2/CCNA2 Caliper 10xKm Ki: Average Ki
# T2 construct: Wild-type, full length CDK2 in complex with wildtype, full length CyclinA2: Carna Cat #04-103; purchased Carna 04-103
# Protocol: 10 nL of 2000× compound in 100% DMSO is added to a 384-well polypropylene assay plate. 15 μL of 1.3×CDK2/A2 and 1.3× fluorescent substrate (Wild-type, full length CDK2 in complex with wildtype, full length CyclinA2: Carna Cat #04-103 and FL-Peptide 18: PerkinElmer Cat #760362) diluted in kinase buffer (50 mM Hepes, 0.01% Brij-35, 10 mM MgCl2, 1 mM EGTA, 0.05% BSA, and 2 mM DTT) is added to the plates on top of the compound, mixed, and pre-incubated for 30 minutes at room temperature. The fluorescently labeled peptide substrate is phosphorylated by CDK2/A2 upon ATP hydrolysis. Following the incubation, 5 μL of 4×ATP diluted in kinase buffer is added to the plate to initiate the reaction. Following the 30-minute incubation, the reaction is stopped by adding 75 μL of stopping buffer containing 0.5 M EDTA.
# as §1, with “Ki through” for “Ki”, “substrate and Km^app” for “substrate, Kmapp”
# CDK1/CyclinB1 [2] = biological target: T1, CDK1/CyclinB1; assay: CDK1/CyclinB1 ChEF Assay (Table A); conditions: read-out: CDK1/CCNB1 ChEF Ki: Average Ki;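 further: Ki reported in nM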
# Protocol: 500 nL of 50× compound in 100% DMSO is added to a 384-well low volume, white assay plate. 19.5 μL of 1.3×CDK1/CyclinB1 (Wild-type, full length CDK1 in complex with wildtype, full length CyclinB1: Carna Cat #04-102) diluted in assay buffer (50 mM Hepes, 0.01% Brij-35, 10 mM MgCl2, 0.5 mM EGTA, 1% Glycerol, and 1.2 mM DTT) is added to the plates on top of the compound and pre-incubated for 30 minutes at room temperature. Following the incubation, 5 μL of 5×Sox-chromophore (CSox) labeled peptide substrate (AQT0297, AssayQuant) & ATP diluted in assay buffer is added to the plate to initiate the reaction. The assay is incubated at room temperature for 30 min after initiation. The CSox peptide substrate is phosphorylated by CDK1/B1 upon ATP hydrolysis.
# The fluorescent intensity measurement of the assay plate for all assays described above is read on a microplate reader once the assay is initiated and again at the completion of the assay. Phosphorylation of the CSox-based peptide substrate sensor results in an immediate increase in fluorescence. These raw fluorescence intensity values are normalized to calculate percent inhibition, which are fit to a four-parameter logistic curve and IC50 values are calculated. IC50 values are converted to Ki using substrate, KM^app values, and the Cheng-Prusoff equation.
# Sequence of CDK9/CyclinT1 (P50750 whole entry): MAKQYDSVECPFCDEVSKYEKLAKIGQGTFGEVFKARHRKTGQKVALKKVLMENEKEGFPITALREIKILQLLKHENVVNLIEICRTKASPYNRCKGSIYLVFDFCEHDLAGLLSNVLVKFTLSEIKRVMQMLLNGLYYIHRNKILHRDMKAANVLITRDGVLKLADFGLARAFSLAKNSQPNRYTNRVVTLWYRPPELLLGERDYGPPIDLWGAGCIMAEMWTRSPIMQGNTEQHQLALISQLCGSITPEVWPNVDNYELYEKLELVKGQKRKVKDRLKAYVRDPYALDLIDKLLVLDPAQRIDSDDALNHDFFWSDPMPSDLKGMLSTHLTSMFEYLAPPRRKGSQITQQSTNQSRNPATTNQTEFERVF
# Sequence of CDK9/CyclinT1 (O60563 1-259 partner limits assumed): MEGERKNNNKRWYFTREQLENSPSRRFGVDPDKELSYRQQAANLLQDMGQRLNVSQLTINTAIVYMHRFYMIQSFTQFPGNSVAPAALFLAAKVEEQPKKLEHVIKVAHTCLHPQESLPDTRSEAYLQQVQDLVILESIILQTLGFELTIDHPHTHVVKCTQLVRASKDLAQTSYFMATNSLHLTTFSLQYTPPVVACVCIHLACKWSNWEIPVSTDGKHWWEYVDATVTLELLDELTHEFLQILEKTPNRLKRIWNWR
# T1 sequence (P06493 whole entry): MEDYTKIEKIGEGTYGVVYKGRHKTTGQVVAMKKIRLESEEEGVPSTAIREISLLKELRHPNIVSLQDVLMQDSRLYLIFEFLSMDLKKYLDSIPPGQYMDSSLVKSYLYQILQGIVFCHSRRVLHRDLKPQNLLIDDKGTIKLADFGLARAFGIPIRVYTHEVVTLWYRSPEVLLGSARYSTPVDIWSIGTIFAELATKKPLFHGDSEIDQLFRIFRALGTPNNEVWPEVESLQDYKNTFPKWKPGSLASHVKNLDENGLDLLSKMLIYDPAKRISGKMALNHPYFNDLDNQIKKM
# T1 sequence (P14635 whole entry partner): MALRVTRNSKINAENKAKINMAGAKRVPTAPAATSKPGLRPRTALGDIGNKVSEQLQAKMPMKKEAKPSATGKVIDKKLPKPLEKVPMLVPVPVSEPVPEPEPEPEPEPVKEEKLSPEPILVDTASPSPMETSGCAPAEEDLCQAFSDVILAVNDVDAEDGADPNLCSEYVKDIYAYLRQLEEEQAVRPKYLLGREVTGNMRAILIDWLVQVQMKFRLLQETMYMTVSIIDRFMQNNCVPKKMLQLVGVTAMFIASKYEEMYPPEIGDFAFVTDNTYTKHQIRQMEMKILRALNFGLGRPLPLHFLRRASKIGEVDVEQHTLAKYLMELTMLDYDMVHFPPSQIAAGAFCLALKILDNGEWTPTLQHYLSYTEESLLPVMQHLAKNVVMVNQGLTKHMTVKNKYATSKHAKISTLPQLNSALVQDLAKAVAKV
Ki (CDK9/CyclinT1),Ki (CDK1/CyclinB1 [1]),Ki (CDK2/CyclinA2),CDK2/CCNA2 Caliper 10xKm Ki: CDK2/A2 Selectivity over CDK1/B1 (CDK2/CyclinA2),CDK2/CCNA2 Caliper 10xKm Ki: CDK2/A2 Selectivity over CDK9 (CDK2/CyclinA2),Ki (CDK1/CyclinB1 [2]),CDK2/CCNA2 Caliper 10xKm Ki: CDK2/A2 Selectivity over CDK6/D3 (CDK2/CyclinA2),SMILES
≥ 100 nM,,,,,,,"NS(=O)(=O)c1ccc2cc1OCCCCCNC(=O)O[C@@H]1CC[C@@H](C1)c1cnc(nc1)N2 (stereo in doubt) [Compound 105, rel-(2S,5R)-7-oxo-6,14-dioxa-8,20,22,25-tetraazatetracyclo[19.2.2.1^{2,5}.1^{15,19}]heptacosa-1(23),15,17,19(26),21,24-hexaene-16-sulfonamide]"
1 to 25 nM,1 to 25 nM,1 to 25 nM,A (A>10),A (A>10),1 to 25 nM,,"O=C1NCCOCCNS(=O)(=O)c2ccc(c(F)c2)Nc2cc([nH]n2)[C@H]2CC[C@H](C2)O1 [Compound 89, (1^1S,1^3R,Z)-4^2-Fluoro-2^1H-9,14-dioxa-5-thia-3,6,12-triaza-2(5,3)-pyrazola-4(1,4)-benzena-1(1,3)-cyclopentanacyclotetradecaphan-13-one 5,5-dioxide]"
25 to 100 nM,25 to 100 nM,1 to 25 nM,A (A>10),A (A>10),1 to 25 nM,,"O=C1NCCCCCNS(=O)(=O)c2ccc(c(F)c2)Nc2cc([nH]n2)[C@H]2CC[C@H](C2)O1 [Compound 90, (1^1S,1^3R,Z)-4^2-fluoro-2^1H-14-oxa-5-thia-3,6,12-triaza-2(5,3)-pyrazola-4(1,4)-benzena-1(1,3)-cyclopentanacyclotetradecaphan-13-one 5,5-dioxide]"
25 to 100 nM,1 to 25 nM,< 1 nM,A (A>10),A (A>10),1 to 25 nM,A (A>10),"O=C1NCCCCCCNS(=O)(=O)c2ccc(c(F)c2)Nc2cc([nH]n2)[C@H]2CC[C@H](C2)O1 [Compound 91, (1^1S,1^3R,Z)-4^2-fluoro-2^1H-15-oxa-5-thia-3,6,13-triaza-2(5,3)-pyrazola-4(1,4)-benzena-1(1,3)-cyclopentanacyclopentadecaphan-14-one 5,5-dioxide]"
25 to 100 nM,< 1 nM,< 1 nM,A (A>10),A (A>10),< 1 nM,A (A>10),O=C1NCCCCCCCNS(=O)(=O)c2ccc(c(F)c2)Nc2cc([nH]n2)[C@H]2CC[C@H](C2)O1 [Compound 92]
≥ 100 nM,≥ 100 nM,25 to 100 nM,B (5≤B<10),B (5≤B<10),≥ 100 nM,,"O=C1NCCCn2cc(cn2)S(=O)(=O)N2CCC(CC2)Nc2cc([nH]n2)[C@H]2CC[C@H](C2)O1 [Compound 95, (1^1S, 1^3R,2^4Z,6^4E)-2^1H,6^1H-12-oxa-5-thia-3,10-diaza-4(4,1)-piperidina-2(5,3),6(4,1)-dipyrazola-1(1,3)-cyclopentanacyclododecaphan-11-one 5,5-dioxide]"
≥ 100 nM,≥ 100 nM,1 to 25 nM,A (A>10),A (A>10),25 to 100 nM,,"O=C1NCCCCCn2cc(cn2)S(=O)(=O)N2CCC(CC2)Nc2cc([nH]n2)[C@H]2CC[C@H](C2)O1 [Compound 96, (1^1S,1^3R,2^4Z,6^4E)-2^1H,6^1H-14-oxa-5-thia-3,12-diaza-4(4,1)-piperidina-2(5,3),6(4,1)-dipyrazola-1(1,3)-cyclopentanacyclotetradecaphan-13-one 5,5-dioxide]"
≥ 100 nM,1 to 25 nM,1 to 25 nM,A (A>10),A (A>10),1 to 25 nM,,"O=C1NCCCCCCn2cc(cn2)S(=O)(=O)N2CCC(CC2)Nc2cc([nH]n2)[C@H]2CC[C@H](C2)O1 [Compound 97, (1^1S,1^3R,2^4Z,6^4E)-2^1H,6^1H-15-oxa-5-thia-3,13-diaza-4(4,1)-piperidina-2(5,3),6(4,1)-dipyrazola-1(1,3)-cyclopentanacyclopentadecaphan-14-one 5,5-dioxide]"
≥ 100 nM,≥ 100 nM,25 to 100 nM,A (A>10),A (A>10),≥ 100 nM,,"O=C1NCCCNS(=O)(=O)c2ccc(c(F)c2)Nc2cc([nH]n2)[C@H]2CC[C@H](C2)O1 [Compound 98, (1^1S, 1^3R,Z)-4^2-fluoro-2^1H-12-oxa-5-thia-3,6, 10-triaza-2(5,3)-pyrazola-4(1,4)-benzena-1(1,3)-cyclopentanacyclododecaphan-11-one 5,5-dioxide]"
≥ 100 nM,1 to 25 nM,< 1 nM,A (A>10),A (A>10),1 to 25 nM,A (A>10),"O=C1NCCCCNS(=O)(=O)c2ccc(c(F)c2)Nc2cc([nH]n2)[C@H]2CC[C@H](C2)O1 [Compound 99, (1^1S, 1^3R,Z)-4^2-fluoro-2^1H-13-oxa-5-thia-3,6,11-triaza-2(5,3)-pyrazola-4(1,4)-benzena-1(1,3)-cyclopentanacyclotridecaphan-12-one 5,5-dioxide]"
